Measurements: patent US20030144295A1, “Treatment for ischemic stroke” (YAMANOUCHI PHARMACEUTICAL CO., LTD., priority 2001, published 2003)

How the values were obtained:
[1] = tested on: rat embolic stroke models; experiment: Neurological symptoms (Bederson score) in rat embolic stroke models, Example 1; format: in vivo, rat (male Sprague-Dawley); conditions: Bederson score 0-3, 24 hours after blood clot injection; administration started 2 hours after clot; alteplase 10 mg/kg i.v., compound A 20 mg/kg/hour for 4 hours; n=8; control 2.5
Description: FIG. 2: Effect of a combined use of compound A with alteplase on neurological symptoms in rat embolic stroke models. Administration of zonampanel (20 mg/kg/hr; i.v. for 4 hours) and alteplase (10 mg/kg; i.v.; 10% of the total dose was subjected to an intravenous bolus administration while the remainder (90%) was subjected to an intravenous administration continuously over 1 hour) was initiated 2 hours after the injection of blood clot. After 24 hours from the injection of the blood clot, the neurological symptoms were observed. Data in the drawing show the data derived from each animal (n=8). The symbol * means a statistically significant difference from a control group or an alteplase-administered group (*p<0.05; Steel's test or Wilcoxon-test). […]
(§1) Evaluation of formation of cerebral embolism by injection of blood clot was carried out using a laser Doppler flowmetry (FloC1; Omegawave) and the cerebral blood flow decreased to a level of 30% or less of the blood clot value immediately after ischemia was taken as a positive evidence of embolism formation. […] The cerebral blood flow was monitored until 30 minutes after infusion of the blood clot and the blood flow of 30 minutes after ischemia was confirmed to-remain 50% or less than the value prior to the injection of the blood clot. […]

[2] = tested on: rat embolic stroke models; experiment: Infarct volume (TTC staining) in rat embolic stroke models, Example 1; format: in vivo, rat (male Sprague-Dawley); conditions: 24 hours after blood clot injection; administration started 2 hours after clot; alteplase 10 mg/kg i.v., compound A 20 mg/kg/hour i.v. for 4 hours; n=8; control 361.2±20.9
Description: FIG. 1: Effect of a combined use of compound A with alteplase on infarct volume in rat embolic stroke models. Administration of compound A (20 mg/kg/hr; i.v. for 4 hours) and alteplase (10 mg/kg; i.v.; 10% of the total dose was subjected to an intravenous bolus administration while the remainder (90%) was subjected to an intravenous administration continuously over 1 hour) was initiated 2 hours after the injection of blood clot. After 24 hours from the infusion of the blood clot, the brain was excised, sliced and stained with TTC. The data in the drawing show a mean value±standard error (n=8). The symbol * means a statistically significant difference from a control group or an alteplase-administered group (*p<0.05; Dunnett's test or t-test). […]
as §1

[3] = cited from earlier work
AMPA receptor = conditions: cited from earlier work

Compound | neurological symptom score (median value) [1] | infarct volume (mean value±standard error) [2] | solubility in water [3] | AMPA binding activity (AMPA receptor)
O=C(O)Cn1c(=O)c(=O)[nH]c2cc([N+](=O)[O-])c(-n3ccnc3)cc21 [compound A, [7-(1H-imidazol-1-yl)-6-nitro-2,3-dioxo-3,4-dihydroquinoxalin-1(2H)-yl]acetic acid] | 2 | 194.6±50.6 mm^3 | high | strong and selective
Alteplase [reference compound] | – | 202.7±49.3 mm^3 | – | –
